Results reported in ChEMBL document CHEMBL4732109, “Structural modifications in the distal, regulatory region of histamine H receptor antagonists leading to the identification of a potent anti-obesity agent” (Eur J Med Chem, 2021).
Calls of active or inactive are those of the source. No cut-off for these calls is given here.

Experiments:
Cytochrome P450 3A4 = Cytochrome P450 3A4 (Homo sapiens, UniProt P08684); assay: Inhibition of recombinant CYP3A4 (unknown origin) at 10 uM measured after 30 mins by luciferase reporter gene assay; assay type: ADME; settings: recombinant enzyme, 0.5 h
Sequence of Cytochrome P450 3A4 (P08684 whole entry): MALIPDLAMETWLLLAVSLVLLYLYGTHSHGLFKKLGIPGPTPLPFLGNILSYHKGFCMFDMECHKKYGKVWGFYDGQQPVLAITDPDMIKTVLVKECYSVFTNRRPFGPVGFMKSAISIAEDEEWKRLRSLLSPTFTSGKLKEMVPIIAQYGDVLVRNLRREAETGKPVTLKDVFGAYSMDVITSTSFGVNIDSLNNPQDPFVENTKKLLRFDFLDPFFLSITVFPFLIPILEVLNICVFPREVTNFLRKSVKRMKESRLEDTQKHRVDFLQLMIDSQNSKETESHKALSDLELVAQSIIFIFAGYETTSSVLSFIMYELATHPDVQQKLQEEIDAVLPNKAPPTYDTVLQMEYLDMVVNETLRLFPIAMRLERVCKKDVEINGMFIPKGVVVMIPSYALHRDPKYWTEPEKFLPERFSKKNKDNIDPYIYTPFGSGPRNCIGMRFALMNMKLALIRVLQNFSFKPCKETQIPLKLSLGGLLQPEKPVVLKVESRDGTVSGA

Histamine H1 receptor = Histamine H1 receptor (Homo sapiens, UniProt P35367); assay: Displacement of [3H]mepyramine from human H1R expressed in Sf9 cell membranes co-expressing RGS4 measured after 60 mins by scintillation counting analysis; parameters: species or system Membrane
Sequence of Histamine H1 receptor (P35367 whole entry): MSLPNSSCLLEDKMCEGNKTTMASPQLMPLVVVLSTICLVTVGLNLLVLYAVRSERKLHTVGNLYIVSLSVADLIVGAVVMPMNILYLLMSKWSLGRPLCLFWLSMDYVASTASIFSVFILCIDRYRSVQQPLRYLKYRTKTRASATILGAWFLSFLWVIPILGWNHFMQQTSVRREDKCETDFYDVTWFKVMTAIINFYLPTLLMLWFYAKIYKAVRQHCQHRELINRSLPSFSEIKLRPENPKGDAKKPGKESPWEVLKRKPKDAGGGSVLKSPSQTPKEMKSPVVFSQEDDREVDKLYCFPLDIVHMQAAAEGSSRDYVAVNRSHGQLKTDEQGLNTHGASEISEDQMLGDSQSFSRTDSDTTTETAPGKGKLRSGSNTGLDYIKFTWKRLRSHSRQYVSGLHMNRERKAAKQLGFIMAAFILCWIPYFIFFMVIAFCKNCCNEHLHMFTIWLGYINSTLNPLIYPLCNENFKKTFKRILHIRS

Histamine H3 receptor [1] = molecular target: T1, Histamine H3 receptor (Homo sapiens, UniProt Q9Y5N1); assay: Displacement of [3H]UR-PI294 from human SP-FLAG-tagged H3R expressed in HEK293T cells measured after 60 to 120 mins by liquid scintillation counting analysis; assay type: cell-based
T1 sequence (Q9Y5N1 whole entry): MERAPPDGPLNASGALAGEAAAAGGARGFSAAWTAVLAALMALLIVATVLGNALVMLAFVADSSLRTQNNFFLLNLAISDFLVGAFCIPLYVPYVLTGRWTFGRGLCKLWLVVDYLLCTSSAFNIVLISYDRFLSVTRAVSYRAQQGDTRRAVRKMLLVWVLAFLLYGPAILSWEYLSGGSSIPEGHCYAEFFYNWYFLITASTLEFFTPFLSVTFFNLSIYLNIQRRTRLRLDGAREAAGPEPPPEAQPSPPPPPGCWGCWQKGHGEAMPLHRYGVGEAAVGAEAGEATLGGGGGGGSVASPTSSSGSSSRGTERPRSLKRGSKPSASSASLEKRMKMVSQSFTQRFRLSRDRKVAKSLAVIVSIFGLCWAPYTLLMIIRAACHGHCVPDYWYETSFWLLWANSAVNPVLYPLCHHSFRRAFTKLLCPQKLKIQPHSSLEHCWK

Histamine H3 receptor [2] = molecular target: T1, Histamine H3 receptor; assay: Binding affinity to human H3R
[3] = Effect on spontaneous locomotor activity in Wistar rat model of diet induced obesity at 1 mg/kg/day, ip administered for 27 days; assay type: ADME, organism-based; settings: in vivo, 648 h, time 27 day
Rattus norvegicus [4] = assay: Anorectic activity in Wistar rat model of diet induced obesity assessed as increase in HDL level at 1 mg/kg/day, ip administered for 28 days measured on day 29 by spectrophotometric method; assay type: functional, organism-based; settings: time 28.0 day
Rattus norvegicus [5] = assay: Anorectic activity in Wistar rat model of diet induced obesity assessed as reduction in total cholesterol level at 1 mg/kg/day, ip administered for 28 days measured on day 29 by spectrophotometric method; assay type: functional, organism-based; settings: time 28.0 day
Rattus norvegicus [6] = assay: Anorectic activity in Wistar rat model of diet induced obesity assessed as reduction in amount of peritoneal fat at 1 mg/kg/day, ip administered for 28 days; assay type: functional, organism-based; settings: time 28.0 day
Histamine H4 receptor = Histamine H4 receptor (Homo sapiens, UniProt Q9H3N8); assay: Binding affinity to human H4R
Sequence of Histamine H4 receptor (Q9H3N8 whole entry): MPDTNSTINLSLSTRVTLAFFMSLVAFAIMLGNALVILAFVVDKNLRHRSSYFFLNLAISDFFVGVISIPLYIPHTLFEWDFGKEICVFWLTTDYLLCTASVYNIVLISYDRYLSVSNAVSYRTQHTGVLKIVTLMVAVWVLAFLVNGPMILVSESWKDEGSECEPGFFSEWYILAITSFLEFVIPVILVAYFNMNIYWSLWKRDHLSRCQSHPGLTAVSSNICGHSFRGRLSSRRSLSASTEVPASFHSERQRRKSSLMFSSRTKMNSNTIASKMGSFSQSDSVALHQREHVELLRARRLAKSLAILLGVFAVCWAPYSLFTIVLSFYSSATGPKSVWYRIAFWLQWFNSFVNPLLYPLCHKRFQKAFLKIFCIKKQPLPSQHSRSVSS

Rattus norvegicus [7] = assay: Anorectic activity in Wistar rat model of diet induced obesity assessed as reduction in body weight at 10 mg/kg/day, ip administered for 28 days; assay type: functional, organism-based; settings: time 28.0 day
Rattus norvegicus [8] = assay: Anorectic activity in Wistar rat model of diet induced obesity assessed as reduction in triglyceride level at 1 to 10 mg/kg/day, ip administered for 28 days measured on day 29 by spectrophotometric method; assay type: functional, organism-based; settings: dose 1-10 mg/kg/day, time 28.0 day
Rattus norvegicus [9] = assay: Anorectic activity in Wistar rat model of diet induced obesity assessed as increase in HDL level at 10 mg/kg/day, ip administered for 28 days measured on day 29 by spectrophotometric method; assay type: functional, organism-based; settings: time 29.0 day
Rattus norvegicus [10] = assay: Anorectic activity in Wistar rat model of diet induced obesity assessed as reduction in plasma glucose level at 10 mg/kg/day, ip administered for 28 days measured on day 29 by spectrophotometric method; assay type: functional, organism-based; settings: time 29.0 day
Rattus norvegicus [11] = assay: Anorectic activity in Wistar rat model of diet induced obesity assessed as reduction in calorie intake at 10 mg/kg/day, ip administered for 28 days; assay type: functional, organism-based; settings: time 28.0 day
Rattus norvegicus [12] = assay: Anorectic activity in Wistar rat model of diet induced obesity assessed as reduction in total cholesterol level at 10 mg/kg/day, ip administered for 28 days measured on day 29 by spectrophotometric method; assay type: functional, organism-based; settings: time 29.0 day
Rattus norvegicus [13] = assay: Anorectic activity in Wistar rat model of diet induced obesity assessed as reduction in calorie intake at 1 mg/kg/day, ip administered for 28 days; assay type: functional, organism-based; settings: time 28.0 day
Rattus norvegicus [14] = assay: Anorectic activity in Wistar rat model of diet induced obesity assessed as reduction in plasma glucose level at 1 mg/kg/day, ip administered for 28 days measured on day 29 by spectrophotometric method; assay type: functional, organism-based; settings: time 28.0 day
[15] = Effect on spontaneous locomotor activity in Wistar rat model of diet induced obesity at 1 to 10 mg/kg/day, ip administered for 27 days; assay type: ADME, organism-based; settings: in vivo, 648 h, dose 1-10 mg/kg/day, time 27 day
Rattus norvegicus [16] = assay: Anorectic activity in Wistar rat model of diet induced obesity assessed as reduction in body weight at 1 mg/kg/day, ip administered for 28 days; assay type: functional, organism-based; settings: time 28.0 day
Rattus norvegicus [17] = assay: Anorectic activity in Wistar rat model of diet induced obesity assessed as reduction in amount of peritoneal fat at 10 mg/kg/day, ip administered for 28 days; assay type: functional, organism-based; settings: time 28.0 day

With `O=C(c1ccc(OCCCc2cnc[nH]2)cc1)C1CC1` [CIPROXIFAN] the “inhibition (INH)” value (Cytochrome P450 3A4) was “Active”.
For `c1ccc(Cc2ccc(OCCCN3CCN(c4ccncc4)CC3)cc2)cc1`, the Ki (Histamine H1 receptor) was 4.24 µM, the “inhibition (INH)” value (Cytochrome P450 3A4) was “Active” and the Ki (Histamine H3 receptor [1]) was 0.0176 µM.
With `Fc1ccc(-c2ccc(OCCCN3CCN(c4ccncc4)CC3)cc2)cc1` the Ki (Histamine H1 receptor) was 3.69 µM, the “inhibition (INH)” value (Cytochrome P450 3A4) was “Active” and the Ki (Histamine H3 receptor [1]) was 0.0607 µM.
`CN(C)[C@@H]1CCN(CCCOc2ccc(-c3ccc(C#N)cc3)cc2F)C1` showed a Ki (Histamine H3 receptor [2]) of 0.00398 µM.
In the case of `c1ccc(Nc2ccc(OCCCN3CCN(c4ccncc4)CC3)cc2)cc1`, the Ki (Histamine H1 receptor) is reported as 4.22 µM, the “inhibition (INH)” value (Cytochrome P450 3A4) is reported as “Active” and the Ki (Histamine H3 receptor [1]) is reported as 0.00843 µM.
With `O=C(c1ccc(OCCCN2CCN(c3ccncc3)CC2)cc1)C1CC1` the Ki (Histamine H1 receptor) was > 10 µM, the “inhibition (INH)” value (Cytochrome P450 3A4) was “Active” and the Ki (Histamine H3 receptor [1]) was 0.00317 µM.
In the case of `Cc1c(C(=O)NN2CCCCC2)nn(-c2ccc(Cl)cc2Cl)c1-c1ccc(Cl)cc1` [RIMONABANT], the Activity [3] is reported as “Non-Toxic”, the Activity (Rattus norvegicus [4]) is reported as “Active” and the Activity (Rattus norvegicus [5]) is reported as “Active”. The Activity (Rattus norvegicus [6]) was “Active”.
With `O=C(c1ccc(Cl)cc1)c1ccc(OCCCN2CCN(c3ccncc3)CC2)cc1` the Ki (Histamine H1 receptor) was 6.86 µM, the “inhibition (INH)” value (Cytochrome P450 3A4) was “Active” and the Ki (Histamine H3 receptor [1]) was 0.023 µM.
For `O=C(c1ccc(F)cc1)c1ccc(OCCCN2CCN(c3ccncc3)CC2)cc1`, the Ki (Histamine H1 receptor) was > 10 µM, the “inhibition (INH)” value (Cytochrome P450 3A4) was “Active” and the Ki (Histamine H3 receptor [1]) was 0.00584 µM.
In the case of `c1ccc2cc(OCCCN3CCN(c4ccncc4)CC3)ccc2c1`, the Ki (Histamine H1 receptor) is reported as 7.42 µM, the “inhibition (INH)” value (Cytochrome P450 3A4) is reported as “Active” and the Ki (Histamine H3 receptor [1]) is reported as 0.0672 µM.
In the case of `Clc1ccc(CCCOCCCN2CCCCC2)cc1` [PITOLISANT], the Ki (Histamine H4 receptor) is reported as > 100 µM.
In the case of `O=C(c1ccc(OCCCN2CCC(c3ccncc3)CC2)cc1)C1CC1`, the Ki (Histamine H1 receptor) is reported as > 10 µM, the “inhibition (INH)” value (Cytochrome P450 3A4) is reported as “Active” and the Ki (Histamine H3 receptor [1]) is reported as 0.0077 µM.
With `N#Cc1ccc(-c2ccc(OCCCN3CCN(c4ccncc4)CC3)cc2)cc1` the Activity (Rattus norvegicus [7]) was “Active”, the Activity (Rattus norvegicus [8]) was “Active” and the Activity (Rattus norvegicus [4]) was “Active”. For the same molecule, the Activity (Rattus norvegicus [9]) was “Active”, the Ki (Histamine H1 receptor) was 2.9 µM and the Activity (Rattus norvegicus [10]) was “Active”. The Activity (Rattus norvegicus [11]) was “Active”, the Activity (Rattus norvegicus [12]) was “Active” and the Activity (Rattus norvegicus [13]) was “Active”. The “inhibition (INH)” value (Cytochrome P450 3A4) was “Active”, the Ki (Histamine H3 receptor [1]) was 0.00786 µM and the Activity (Rattus norvegicus [14]) was “inactive”. For the same molecule, the Activity [15] was “Non-Toxic”, the Activity (Rattus norvegicus [6]) was “Active” and the Activity (Rattus norvegicus [16]) was “Active”. For the same molecule, the Activity (Rattus norvegicus [17]) was “Active”.
Work on `CN(C)[C@@H]1CCN(CCCOc2ccc(-c3ccc(C#N)cc3)cc2)C1` yielded a Ki (Histamine H3 receptor [2]) of 0.002 µM.
With `Clc1ccc(-c2ccc(OCCCN3CCN(c4ccncc4)CC3)cc2)cc1` the Ki (Histamine H1 receptor) was 4.09 µM, the “inhibition (INH)” value (Cytochrome P450 3A4) was “Active” and the Ki (Histamine H3 receptor [1]) was 0.14 µM.
With `c1ccc(Oc2ccc(OCCCN3CCN(c4ccncc4)CC3)cc2)cc1` the Ki (Histamine H1 receptor) was 4.57 µM, the “inhibition (INH)” value (Cytochrome P450 3A4) was “Active” and the Ki (Histamine H3 receptor [1]) was 0.0203 µM.
In the case of `Clc1cccc(-c2ccc(OCCCN3CCN(c4ccncc4)CC3)cc2)c1`, the Ki (Histamine H1 receptor) is reported as 1.99 µM, the “inhibition (INH)” value (Cytochrome P450 3A4) is reported as “Active” and the Ki (Histamine H3 receptor [1]) is reported as 0.109 µM.
